Patent US12668845B2, “Methods for predicting drug responsiveness in cancer patients” (Allarity Therapeutics Europe ApS, priority 2018, dated 2026)

How the values were obtained:
U266 = test: Growth inhibition of cell lines treated with 2X-121; type: cell-based; conditions: Homo sapiens, U-266; cell line U266, origin Myeloma; read-out: Measured growth inhibition IC50
HEC-59 = test: as above; type: cell-based; conditions: cell line HEC-59, origin Endometrial; read-out: Measured growth inhibition IC50
HEC-1B = test: as above; type: cell-based; conditions: Homo sapiens; cell line HEC-1B, origin Endometrial; read-out: Measured growth inhibition IC50
HEC-50B = test: as above; type: cell-based; conditions: cell line HEC-50B, origin Endometrial; read-out: Measured growth inhibition IC50
ECC-1 = test: as above; type: cell-based; conditions: Homo sapiens; cell line ECC-1, origin Endometrial; read-out: Measured growth inhibition IC50
HEC-265 = test: as above; type: cell-based; conditions: cell line HEC-265, origin Endometrial; read-out: Measured growth inhibition IC50
HCC1806 = test: as above; type: cell-based; conditions: Homo sapiens; cell line HCC1806, origin Breast; read-out: Measured growth inhibition IC50
IM-9 = test: as above; type: cell-based; conditions: Homo sapiens; cell line IM-9, origin B lymphoblast; read-out: Measured growth inhibition IC50
MDA-MB-468 = test: as above; type: cell-based; conditions: Homo sapiens; cell line MDA-MB-468, origin Breast; read-out: Measured growth inhibition IC50
NCI-H1694 = test: as above; type: cell-based; conditions: Homo sapiens; cell line NCI-H1694, origin SCLC; read-out: Measured growth inhibition IC50
MV-4-11 = test: as above; type: cell-based; conditions: Homo sapiens, MV4-11; cell line MV-4-11, origin AML; read-out: Measured growth inhibition IC50
HEC-1 = test: as above; type: cell-based; conditions: Homo sapiens; cell line HEC-1, origin Endometrial; read-out: Measured growth inhibition IC50
SNU-182 = test: as above; type: cell-based; conditions: Homo sapiens; cell line SNU-182, origin HCC; read-out: Measured growth inhibition IC50
MFE-280 = test: as above; type: cell-based; conditions: Homo sapiens; cell line MFE-280, origin Endometrial; read-out: Measured growth inhibition IC50
NCEB-1 = test: as above; type: cell-based; conditions: NCEB1; cell line NCEB-1, origin MCL; read-out: Measured growth inhibition IC50
tumor = test: Phase I trial of 2X-121 (NCT01618136), clinical response; type: in vivo, human; design: key to RECIST: SD = stable disease; PD = progressive disease; PR = partial response
Experimental: A Phase I trial of 2X-121 was conducted in the UK (clinicaltrial.gov number NCT01618136). 2X-121 was administered as daily oral doses of 50-800 mg. Of 41 patients enrolled in the Phase I trial, 35 had response assessment. Of these, 2 had partial response (PR) (5% overall response rate (ORR)) and 13 had stable disease (SD). Biopsies and BRCA analysis were voluntary and available from 16, and 7 patients, respectively.
Of the 16 patients with biopsies, 13 passed our quality control (QC) in the lab and were assayed on the Affymetrix HG-U133Plus2 array.
A statistical analysis plan was completed before initiation of blinded prediction of 2X-121 sensitivity on the 13 samples. In this analysis, the difference of the mean expression of genes in Table 3 were subtracted from the mean expression of genes in Table 2 for each patient to determine a difference score. This score was compared to a reference population of 819 breast cancer patients to convert the difference score to a percentile score. The percentile score is shown in Table 4 as “DRP score” and used for FIGS. 3 and 4, and Tables 5 and 6.

NCI-H929 = test: Growth inhibition of cell lines treated with 2X-121; type: cell-based; conditions: Homo sapiens; cell line NCI-H929, origin Myeloma; read-out: Measured growth inhibition IC50
[1] = Patient 1, tumor pancreas, 2X-121 dose 600 mg
[2] = Patient 2, tumor mesothelioma, 2X-121 dose 200 mg
[3] = Patient 3, tumor pancreas, 2X-121 dose 600 mg
[4] = Patient 4, tumor intestine, 2X-121 dose 600 mg
[5] = Patient 5, tumor ovary, 2X-121 dose 600 mg
[6] = Patient 6, tumor lung, 2X-121 dose 50 mg
[7] = Patient 7, tumor pancreas, 2X-121 dose 50 mg
[8] = Patient 8, tumor adrenal, 2X-121 dose 400 mg
[9] = Patient 9, tumor kidney, 2X-121 dose 400 mg
[10] = Patient 10, tumor ovary, 2X-121 dose 800 mg
[11] = Patient 11, tumor ovary, 2X-121 dose 800 mg
[12] = Patient 12, tumor pancreas, 2X-121 dose 600 mg
[13] = Patient 13, tumor gallbladder, 2X-121 dose 600 mg
[14] = predicted resistant group (below DRP cutoff 50, N=7)

O=c1[nH]nc2c3c(cccc13)N=C(CN1Cc3ccccc3C1)N2 [2X-121, 8-(isoindolin-2-ylmethyl)-2,9-dihydro-3H-pyridazino[3,4,5-de]quinazolin-3-one]
IC50 (U266): 6700 nM | IC50 (HEC-59): 2440 nM | IC50 (HEC-1B): 7270 nM | IC50 (HEC-50B): 3450 nM | IC50 (ECC-1): 680 nM | IC50 (HEC-265): 2400 nM | IC50 (HCC1806): 1800 nM | IC50 (IM-9): 2100 nM | IC50 (MDA-MB-468): 2500 nM | IC50 (NCI-H1694): 2470 nM | IC50 (MV-4-11): 950 nM | IC50 (HEC-1): 1280 nM | IC50 (SNU-182): 5400 nM | IC50 (MFE-280): 770 nM | IC50 (NCEB-1): 5300 nM | response rate (tumor; BRCA mutated population, 1 of 6 responded): 16% | TimeOS (tumor; Patient 1, tumor pancreas, 600 mg, StatusOS Death): 208 days | TimePFS (tumor; Patient 1, tumor pancreas, 600 mg, StatusPFS censored): 42 days | Diameter (%), change from baseline (tumor; [1]): −10% | RECIST (tumor; [1]): SD | TimeOS (tumor; Patient 2, tumor mesothelioma, 200 mg, StatusOS Death): 167 days | TimePFS (tumor; Patient 2, tumor mesothelioma, 200 mg, StatusPFS Progression): 50 days | Diameter (%), change from baseline (tumor; [2]): 1% | RECIST (tumor; [2]): PD | TimeOS (tumor; Patient 3, tumor pancreas, 600 mg, StatusOS censored): 406 days | TimePFS (tumor; Patient 3, tumor pancreas, 600 mg, StatusPFS censored): 321 days | Diameter (%), change from baseline (tumor; [3]): −22% | RECIST (tumor; [3]): SD | TimeOS (tumor; Patient 4, tumor intestine, 600 mg, StatusOS Death): 120 days | TimePFS (tumor; Patient 4, tumor intestine, 600 mg, StatusPFS Progression): 59 days | Diameter (%), change from baseline (tumor; [4]): 23% | RECIST (tumor; [4]): PD | TimeOS (tumor; Patient 5, tumor ovary, 600 mg, StatusOS censored): 379 days | TimePFS (tumor; Patient 5, tumor ovary, 600 mg, StatusPFS Progression): 331 days | Diameter (%), change from baseline (tumor; [5]): −83% | RECIST (tumor; [5]): PR | TimeOS (tumor; Patient 6, tumor lung, 50 mg, StatusOS censored): 466 days | TimePFS (tumor; Patient 6, tumor lung, 50 mg, StatusPFS Progression): 155 days | Diameter (%), change from baseline (tumor; [6]): 5% | RECIST (tumor; [6]): SD | TimeOS (tumor; Patient 7, tumor pancreas, 50 mg, StatusOS Death): 335 days | TimePFS (tumor; Patient 7, tumor pancreas, 50 mg, StatusPFS censored): 262 days | Diameter (%), change from baseline (tumor; [7]): 3% | RECIST (tumor; [7]): SD | TimeOS (tumor; Patient 8, tumor adrenal, 400 mg, StatusOS Death): 190 days | TimePFS (tumor; Patient 8, tumor adrenal, 400 mg, StatusPFS Progression): 50 days | Diameter (%), change from baseline (tumor; [8]): 40% | RECIST (tumor; [8]): PD | TimeOS (tumor; Patient 9, tumor kidney, 400 mg, StatusOS censored): 865 days | TimePFS (tumor; Patient 9, tumor kidney, 400 mg, StatusPFS Progression): 276 days | Diameter (%), change from baseline (tumor; [9]): −2% | RECIST (tumor; [9]): SD | TimeOS (tumor; Patient 10, tumor ovary, 800 mg, StatusOS Death): 301 days | TimePFS (tumor; Patient 10, tumor ovary, 800 mg, StatusPFS Progression): 50 days | Diameter (%), change from baseline (tumor; [10]): 26% | RECIST (tumor; [10]): PD | TimeOS (tumor; Patient 11, tumor ovary, 800 mg, StatusOS censored): 715 days | TimePFS (tumor; Patient 11, tumor ovary, 800 mg, StatusPFS Progression): 315 days | Diameter (%), change from baseline (tumor; [11]): −46% | RECIST (tumor; [11]): PR | TimeOS (tumor; Patient 12, tumor pancreas, 600 mg, StatusOS Death): 257 days | TimePFS (tumor; Patient 12, tumor pancreas, 600 mg, StatusPFS Progression): 189 days | Diameter (%), change from baseline (tumor; [12]): −7% | RECIST (tumor; [12]): SD | TimeOS (tumor; Patient 13, tumor gallbladder, 600 mg, StatusOS Death): 121 days | TimePFS (tumor; Patient 13, tumor gallbladder, 600 mg, StatusPFS Progression): 41 days | Diameter (%), change from baseline (tumor; [13]): 3% | RECIST (tumor; [13]): PD | patients with partial response (PR) (tumor; Phase I, daily oral 50-800 mg, of 35 patients with response assessment): 2 | overall response rate (ORR) (tumor; Phase I, daily oral doses of 50-800 mg, 41 enrolled, 35 with response assessment): 5% | hazard ratio, progression-free survival (PFS) (tumor; above DRP cutoff of 50 (N=6) vs below (N=7), P=0.2 one-sided): 0.59 | hazard ratio, overall survival (OS) (tumor; above dose-adjusted DRP cutoff of 50 (N=6) vs below (N=7), P=0.04 one sided): 0.26 | response rate (tumor; all 13 patients analyzed with DRP (cutoff 0, 100% of population), 2/13): 15% | response rate (tumor; patients above dose-adjusted DRP cutoff of 50, 2/6): 33% | median PFS (tumor; [14]): 155 days | median survival (tumor; [14]): 208 days | median PFS (tumor; predicted sensitive group (above DRP cutoff 50, N=6)): 296 days | IC50 (NCI-H929): 5200 nM
